Where two headings read alike, the source gives them in different places.

These results are taken from patent US20250034167A1, “HETEROCYCLIC COMPOUNDS AND METHODS OF USE” (AMGEN INC., priority 2021, published 2025).

Assay [1] deals with His-tagged KRAS G12D protein (Homo sapiens, UniProt P01116, G12D). Description: biochemical.
Experimental: The plate was incubated for 30 minutes at room temperature. Biotinylated KRPep-2d substrate (Amgen) was diluted to nM in Assay Buffer and 2 μL was added to all wells and incubated for 1 hour at room temperature. Detection Reagent (0.4 nM LANCE Eu-W1024 Anti-6×His (Perkin Elmer AD0401), 5 nM streptavidin-d2 (Cisbio 610SADLA)) was prepared in Assay Buffer, then 4 µL was added to the plate and incubated for 1 hour at room temperature.
In assay [2] the test system is Phosphorylation of ERK1/2 in AsPC-1 cells. As to the kind of experiment: Phospho-ERK1/2 MSD Assay. The assay is classed as cell-based. The method, then: Sixteen hours prior to compound treatment, AsPC-1 cells were seeded in 96-well cell culture plates at a density of 25,000 cells/well and incubated at 37° C., 5% CO2. A compound dose-response titration was diluted in growth media, added to appropriate wells of a cell culture plate, and then incubated at 37° C., 5% CO2 for 2 hours.

Where [3] appears, read: Homo sapiens, ASPC1, 2 h, read-out: 2 h p-ERK (AsPC-1 cells), IC50, AsPC-1 cells, 2 h compound treatment.
Where [4] appears, read: read-out: 2 h p-ERK (AsPC-1 cells), IC50, AsPC-1 cells, 2 h compound treatment.

His-tagged KRAS G12D protein, sequence (P01116 1-188 isoform P01116-2 G12D): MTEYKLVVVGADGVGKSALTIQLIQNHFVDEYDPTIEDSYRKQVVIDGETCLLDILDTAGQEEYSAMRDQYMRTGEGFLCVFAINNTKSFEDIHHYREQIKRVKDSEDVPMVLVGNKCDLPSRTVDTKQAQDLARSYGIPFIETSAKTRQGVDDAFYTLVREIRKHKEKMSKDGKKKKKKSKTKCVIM

Broadly, the IC50 is the midpoint of a concentration-inhibition curve. Turning to `CCc1c(F)ccc2cc(O)cc(-c3ncc4c(N5CCCCCC5)nc(OC[C@@]56CCCN5C[C@H](F)C6)nc4c3F)c12` [Example 2, 4-(4-(Azepan-1-yl)-8-fluoro-2-(((2R,7aS)-2-fluorotetrahydro-1H-pyrrolizin-7a(5H)-yl)methoxy)pyrido[4,3-d]pyrimidin-7-yl)-5-ethyl-6-fluoronaphthalen-2-ol], the IC50 in assay [1] turned out to be 1 nM; in assay [2] (setting [3]), 115 nM.

For the molecule `CCc1c(F)ccc2cc(O)cc(-c3ncc4c(N5C[C@H]6CC[C@@H]5C(O)C6)nc(OC[C@@]56CCCN5C[C@H](F)C6)nc4c3F)c12` (stereo partly drawn) [Example 17, (1R,4S)-2-(7-(8-Ethyl-7-fluoro-3-hydroxynaphthalen-1-yl)-8-fluoro-2-(((2R,7aS)-2-fluorotetrahydro-1H-pyrrolizin-7a(5H)-yl)methoxy)pyrido[4,3-d]pyrimidin-4-yl)-2-azabicyclo[2.2.2]octan-6-ol], the IC50 is 38 nM in assay [1] and 3180 nM in assay [2] (setting [3]).

For the molecule `CCc1c(F)ccc2cc(O)cc(-c3ncc4c(N5CC6CC(C#N)C(C6)C5)nc(OC[C@@]56CCCN5C[C@H](F)C6)nc4c3F)c12` (single isomer, unassigned) [Example 145], the figures for the IC50 in assay [1] and in assay [2] (setting [4]) were 8 nM and 593 nM, respectively.

Regarding `CCc1c(F)ccc2cc(O)cc(-c3ncc4c(N5C[C@@H](O)C[C@@H](F)C5)nc(OC[C@@]56CCCN5C[C@H](F)C6)nc4c3F)c12` (mixture of isomers) [Example 115, rac-(3S,5R)-1-(7-(8-Ethyl-7-fluoro-3-hydroxynaphthalen-1-yl)-8-fluoro-2-(((2R,7aS)-2-fluorotetrahydro-1H-pyrrolizin-7a(5H)-yl)methoxy)pyrido[4,3-d]pyrimidin-4-yl)-5-fluoropiperidin-3-ol], the IC50 in assay [1] amounted to 3 nM; in assay [2] (setting [3]), 83 nM.

Consider `CCc1c(F)ccc2cc(O)cc(-c3ncc4c(N5CCCC(O)(CC)C5)nc(OC[C@@]56CCCN5C[C@H](F)C6)nc4c3F)c12` (stereo partly drawn) [Example 65, 3-Ethyl-1-(7-(8-ethyl-7-fluoro-3-hydroxynaphthalen-1-yl)-8-fluoro-2-(((2R,7aS)-2-fluorotetrahydro-1H-pyrrolizin-7a(5H)-yl)methoxy)pyrido[4,3-d]pyrimidin-4-yl)piperidin-3-ol], for which the values for the IC50 in assay [1] and in assay [2] (setting [3]) were 3 nM and 153 nM, respectively.

As to `CCc1c(F)ccc2cc(O)cc(-c3ncc4c(N5CCC[C@@H](C(=O)OC)C5)nc(OC[C@@]56CCCN5C[C@H](F)C6)nc4c3F)c12` [Example 126, Methyl (R)-1-(7-(8-ethyl-7-fluoro-3-hydroxynaphthalen-1-yl)-8-fluoro-2-(((2R,7aS)-2-fluorotetrahydro-1H-pyrrolizin-7a(5H)-yl)methoxy)pyrido[4,3-d]pyrimidin-4-yl)piperidine-3-carboxylate], the IC50 in assay [1] was 37 nM; in assay [2] (setting [3]), 3340 nM.

On to `CCc1c(F)ccc2cc(O)cc(-c3ncc4c(N5CCCC(O)(C(N)=O)C5)nc(OC[C@@]56CCCN5C[C@H](F)C6)nc4c3F)c12` (stereo partly drawn) [Example 159, 1-(7-(8-Ethyl-7-fluoro-3-hydroxy-naphthalen-1-yl)-8-fluoro-2-(((2R,7aS)-2-fluorotetrahydro-1H-pyrrolizin-7a(5H)-yl)methoxy)pyrido[4,3-d]pyrimidin-4-yl)-3-hydroxypiperidine-3-carboxamide], for which the values for the IC50 in assay [1] and in assay [2] (setting [3]) were 2 nM and 3080 nM, respectively.

As to `CCc1c(F)ccc2cc(O)cc(-c3ncc4c(N5CCC[C@H](S(N)(=O)=O)C5)nc(OC[C@@]56CCCN5C[C@H](F)C6)nc4c3F)c12` [Example 7, (S)-1-(7-(8-Ethyl-7-fluoro-3-hydroxynaphthalen-1-yl)-8-fluoro-2-(((2R,7aS)-2-fluorotetrahydro-1H-pyrrolizin-7a(5H)-yl)methoxy)pyrido[4,3-d]pyrimidin-4-yl)piperidine-3-sulfonamide], the results for the IC50 in assay [1] and in assay [2] (setting [3]) were 37 nM and above 10000 nM, respectively.

In the case of `CCc1c(F)ccc2cc(O)cc(-c3ncc4c(N5CC(O)(C(N)=O)C5)nc(OC[C@@]56CCCN5C[C@H](F)C6)nc4c3F)c12` [Example 83, 1-(7-(8-Ethyl-7-fluoro-3-hydroxynaphthalen-1-yl)-8-fluoro-2-(((2R,7aS)-2-fluorotetrahydro-1H-pyrrolizin-7a(5H)-yl)methoxy)pyrido[4,3-d]pyrimidin-4-yl)-3-hydroxyazetidine-3-carboxamide], the IC50 is 2 nM in assay [1] and above 10000 nM in assay [2] (setting [3]).

Take `C=CCC1CCCc2cc(O)cc(-c3ncc4c(N5CCC[C@@](C)(O)C5)nc(OC[C@@]56CCCN5C[C@H](F)C6)nc4c3F)c21` (stereo partly drawn) [Example 175, (3R)-1-(7-(8-Allyl-3-hydroxy-5,6,7,8-tetrahydro-naphthalen-1-yl)-8-fluoro-2-(((2R,7aS)-2-fluorotetrahydro-1H-pyrrolizin-7a(5H)-yl)methoxy)pyrido[4,3-d]pyrimidin-4-yl)-3-methyl-piperidin-3-ol]: the values for the IC50 in assay [1] and in assay [2] (setting [3]) were 8 nM and 10 nM, respectively.

In the case of `CCc1c(F)ccc2cc(O)cc(-c3ncc4c(N5CC(C)CC(C(N)=O)C5)nc(OC[C@@]56CCCN5C[C@H](F)C6)nc4c3F)c12` (single isomer, unassigned) [Example 164], the figures for the IC50 in assay [1] and in assay [2] (setting [4]) were 3 nM and 1200 nM, respectively.

Regarding `CCc1c(F)ccc2cc(O)cc(-c3ncc4c(N5CC[C@H](O)[C@@H](O)C5)nc(OC[C@@]56CCCN5C[C@H](F)C6)nc4c3F)c12` (relative stereo) [Example 101, rel-(3S,4S)-1-(7-(8-Ethyl-7-fluoro-3-hydroxynaphthalen-1-yl)-8-fluoro-2-(((2R,7aS)-2-fluorotetrahydro-1H-pyrrolizin-7a(5H)-yl)methoxy)pyrido[4,3-d]pyrimidin-4-yl)piperidine-3,4-diol], the concentration for half-maximal inhibition (IC50) in assay [1] is 20 nM; in assay [2] (setting [3]), above 10000 nM.

For `CCc1c(F)ccc2cc(O)cc(-c3ncc4c(N5CCCCC(C)(O)C5)nc(OC[C@@]56CCCN5C[C@H](F)C6)nc4c3F)c12` (single isomer, unassigned) [Example 136], the IC50 in assay [1] was determined as 10 nM; in assay [2] (setting [4]), 614 nM.

Regarding `CCc1c(F)ccc2cc(O)cc(-c3ncc4c(N5CCC(C(N)=O)CC5)nc(OC[C@@]56CCCN5C[C@H](F)C6)nc4c3F)c12` [Example 6, 1-(7-(8-Ethyl-7-fluoro-3-hydroxynaphthalen-1-yl)-8-fluoro-2-(((2R,7aS)-2-fluorotetrahydro-1H-pyrrolizin-7a(5H)-yl)methoxy)pyrido[4,3-d]pyrimidin-4-yl)piperidine-4-carboxamide], the values for the IC50 in assay [1] and in assay [2] (setting [3]) were 55 nM and above 10000 nM, respectively.

Consider `CCc1c(F)ccc2cc(O)cc(-c3ncc4c(N5CC6CCC(C5)C6(C)O)nc(OC[C@@]56CCCN5C[C@H](F)C6)nc4c3F)c12` (stereo partly drawn) [Example 98, 3-(7-(8-Ethyl-7-fluoro-3-hydroxynaphthalen-1-yl)-8-fluoro-2-(((2R,7aS)-2-fluorotetrahydro-1H-pyrrolizin-7a(5H)-yl)methoxy)pyrido[4,3-d]pyrimidin-4-yl)-8-methyl-3-azabicyclo[3.2.1]octan-8-ol], for which the IC50 in assay [1] turned out to be 80 nM; in assay [2] (setting [3]), 2840 nM.

`CCc1c(F)ccc2cc(O)cc(-c3ncc4c(N5CC6CCC(C5)C(C#N)C6)nc(OC[C@@]56CCCN5C[C@H](F)C6)nc4c3F)c12` (stereo partly drawn) [Example 147, 3-(7-(8-Ethyl-7-fluoro-3-hydroxynaphthalen-1-yl)-8-fluoro-2-(((2R,7aS)-2-fluorotetrahydro-1H-pyrrolizin-7a(5H)-yl)methoxy)pyrido[4,3-d]pyrimidin-4-yl)-3-azabicyclo[3.2.2]nonane-6-carbonitrile]: the IC50 is 15 nM in assay [1] and 714 nM in assay [2] (setting [3]).

As for `CCc1c(F)ccc2cc(O)cc(-c3ncc4c(N5C[C@H](O)C[C@@H](O)C5)nc(OC[C@@]56CCCN5C[C@H](F)C6)nc4c3F)c12` [Example 102, (3R,5R)-1-(7-(8-Ethyl-7-fluoro-3-hydroxynaphthalen-1-yl)-8-fluoro-2-(((2R,7aS)-2-fluorotetrahydro-1H-pyrrolizin-7a(5H)-yl)methoxy)pyrido[4,3-d]pyrimidin-4-yl)piperidine-3,5-diol], the IC50 in assay [1] amounted to 2 nM; in assay [2] (setting [3]) it was 1900 nM.

On to `CCc1c(F)ccc2cc(O)cc(-c3ncc4c(N5CC6CCC(C5)C6O)nc(OC[C@@]56CCCN5C[C@H](F)C6)nc4c3F)c12` (stereo partly drawn) [Example 97, 3-(7-(8-Ethyl-7-fluoro-3-hydroxynaphthalen-1-yl)-8-fluoro-2-(((2R,7aS)-2-fluorotetrahydro-1H-pyrrolizin-7a(5H)-yl)methoxy)pyrido[4,3-d]pyrimidin-4-yl)-3-azabicyclo[3.2.1]octan-8-ol], for which the IC50 in assay [1] amounted to 33 nM; in assay [2] (setting [3]), 1560 nM.

Consider `C[C@@]1(O)CCCN(c2nc(OC[C@@]34CCCN3C[C@H](F)C4)nc3c(F)c(-c4cc(O)cc5ccc(F)c(Cl)c45)ncc23)C1` [Example 56, (R)-1-(7-(8-Chloro-7-fluoro-3-hydroxynaphthalen-1-yl)-8-fluoro-2-(((2R,7aS)-2-fluorotetrahydro-1H-pyrrolizin-7a(5H)-yl)methoxy)pyrido[4,3-d]pyrimidin-4-yl)-3-methylpiperidin-3-ol], for which the values for the IC50 in assay [1] and in assay [2] (setting [3]) were 1 nM and 33 nM, respectively.

In the case of `CCc1c(F)ccc2cc(O)cc(-c3ncc4c(N5CC6CC(C#N)C(C6)C5)nc(OC[C@@]56CCCN5C[C@H](F)C6)nc4c3F)c12` (single isomer, unassigned) [Example 146], the figures for the IC50 in assay [1] and in assay [2] (setting [4]) were 2 nM and 233 nM, respectively.

Turning to `C#Cc1c(F)ccc2cc(O)cc(-c3ncc4c(N5CCCC(C)(O)C5)nc(OCC56CCCN5CC(F)C6)nc4c3F)c12` [Example 52, (R)-1-(7-(8-Ethynyl-7-fluoro-3-hydroxynaphthalen-1-yl)-8-fluoro-2-(((2R,7aS)-2-fluorotetrahydro-1H-pyrrolizin-7a(5H)-yl)methoxy)pyrido[4,3-d|pyrimidin-4-yl)-3-methylpiperidin-3-ol], the values for the IC50 in assay [1] and in assay [2] (setting [3]) were 1 nM and 8 nM, respectively.
